This assay deals with Pyrenophora teres. The experiment in a line: Pyrenophora teres test (barley)/protective. Format: in vivo. To be noted: protective, application rate 250 g/ha, evaluation 7 days after inoculation. How it is done:
To produce a suitable preparation of active compound, 1 part by weight of active compound is mixed with the stated amount of solvent and emulsifier, and the concentrate is diluted with water to the desired concentration.
To test for protective activity, young plants are sprayed with the preparation of active compound at the stated application rate. After the spray coating has dried on, the plants are sprayed with a conidia suspension of Pyrenophora teres. The plants remain in an incubation cabin at 20° C. and 100% relative atmospheric humidity for 48 hours.
The plants are then placed in a greenhouse at a temperature of about 20° C. and a relative atmospheric humidity of about 80%.
Evaluation is carried out 7 days after the inoculation. 0% means an efficacy which corresponds to that of the control, whereas an efficacy of 100% means that no infection is observed.

`Cc1nn(C)c(F)c1C(=O)Nc1ccccc1C(C)C(C)C` (stereo not shown) [drawing 96] came in with an Efficacy in % of 100%.
